According to patent US9399635B2, “Pyrazole derivative” (GREEN TECH CO., LTD., priority 2011, dated 2016):
Like-named read-outs stand apart in the source and are kept apart here.

Columns and labels:
Aβ 1-42 = biological target: T1, Aβ 1-42 (Homo sapiens, UniProt P05067); assay: Determination of Aβ aggregation inhibitory activity (thioflavin T fluorescence); type: biochemical; settings: Aβ 1-42, 37° C. for 24 hours, thioflavin T; read-out: IC50 (μM) Test example 3 (Aβ aggregation inhibitory activity)
T1 construct: Aβ 1-42 (Peptide Institute, Inc.) was dissolved in 0.3% ammonia water; purchased Peptide Institute, Inc
T1 sequence (P05067 672-713): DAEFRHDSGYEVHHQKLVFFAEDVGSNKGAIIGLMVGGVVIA
Description: Pharmacological test example 3: Determination of Aβ aggregation inhibitory activity
Aβ 1-42 (Peptide Institute, Inc.) was dissolved in 0.3% ammonia water so that the concentration would be 0.5 mM and then diluted with PBS to 20 μM. The test compounds were prepared using DMSO at 100-fold of their final concentrations and adjusted so that the DMSO concentration would be 2%. The Aβ solution and each of the test compound solutions were mixed at an equivalent ratio and the mixtures were incubated at 37° C. for 24 hours. To each of the mixtures, an equal volume of a thioflavin T solution adjusted with a 100 mM Tris-glycine buffer (pH 8.5) to 6 μM was added. The fluorescence intensity was measured with a fluorescence plate reader (excitation wavelength: 440 nm; emission wavelength: 480 nm).
The final concentration of each compound at the time of measurement was set at 0.1, 0.3, 1, 3, and 10 μM. The sample to which only DMSO was added was used as a negative control and its fluorescence intensity was taken as 0% inhibitory activity.

[1] = Evaluation of in vivo pharmacokinetics (blood and brain concentrations, LC-MS/MS); settings: SD rats
Description: Pharmacological test example 4: Evaluation of in vivo pharmacokinetics
To SD rats (male, 7 weeks old), the test compound was orally administered (p. o.) at an amount of 50 mg/kg bw or intravenously administered (i.v.) at an amount of 1 mg/kg bw and the concentrations in the blood and brain were measured up to 3 hours. The administration vehicle was an 80% PEG 400 aqueous solution. The blood was collected under isoflurane inhalational anesthesia and the brain was harvested after the rats were sacrificed. The plasma was separated from the blood. The brain was homogenized after addition of a three-fold volume of PBS and then methanol was added thereto. Thus the prepared test samples were subjected to measurement. The measurement was performed by LC-MS/MS (Applied Biosystems and Waters).
The blood concentration changes of the compounds of Example 2 and Example 2 (2) ((1E,6E)-1-(1H-indol-6-yl)-7-[2-methoxy-4-(2-pyridylmethoxy)phenyl]hepta-1,6-diene-3,5-dione) after oral administration (p.o.) thereof are shown in FIG. 2. The brain concentration changes of the compounds after intravenous administration (i.v.) and oral administration (p.o.) thereof are shown in Table 2.

With `COc1cc(OCc2ccccn2)ccc1/C=C/c1cc(/C=C/c2ccc3cc[nH]c3c2)[nH]n1` [Example 2, 3-[(1E)-2-(1H-indol-6-yl)ethenyl]-5-[(1E)-2-[2-methoxy-4-(2-pyridylmethoxy)phenyl]ethenyl]-1H-pyrazole] the IC50 (Aβ 1-42) was 1.5 µM, the “blood and brain concentrations compared with the compound of Example 2 (2)” value ([1]; p.o. 50 mg/kg bw or i.v. 1 mg/kg bw (FIG. 2, Table 2)) was “higher blood and brain concentrations” and the concentration at 5 min ([1]; male, rat, intravenous 1 mg/kg bw, 5 min, brain, read-out: brain concentration i.v. 5 min) was 48.7 ng/mL. It also gave a concentration at 180 min ([1]; male, rat, intravenous 1 mg/kg bw, brain, read-out: brain concentration i.v. 180 min) of 17.5 ng/mL, a concentration at 60 min ([1]; male, rat, oral 50 mg/kg bw, 60 min, brain, read-out: brain concentration p.o. 60 min) of 8.54 ± 2.93 ng/mL and a concentration at 180 min ([1]; male, rat, oral 50 mg/kg bw, brain, read-out: brain concentration p.o. 180 min) of 68.9 ± 39.4 ng/mL.
